# Assay results as given in article PMC5441637, “The mitochondrial SIR2 related protein 2 (SIR2RP2) impacts Leishmania donovani growth and infectivity” (PLoS Neglected Tropical Diseases, 2017).
# Target: T1, SIR2 related protein 2 (LdSIR2RP2) (Leishmania donovani, UniProt A0A3S7WXV8)
# T1 construct: gene LdCL_230021600; full-length recombinant LdSIR2RP2 (complete ORF, 320 aa; MBP/His tag removed by TEV)
# Assay: […]NAD+ ADP-ribosyltransferase assay on calf thymus histones, SDS-PAGE/PhosphorImager
# Type: biochemical
# T1 sequence (A0A3S7WXV8 entry or part of it): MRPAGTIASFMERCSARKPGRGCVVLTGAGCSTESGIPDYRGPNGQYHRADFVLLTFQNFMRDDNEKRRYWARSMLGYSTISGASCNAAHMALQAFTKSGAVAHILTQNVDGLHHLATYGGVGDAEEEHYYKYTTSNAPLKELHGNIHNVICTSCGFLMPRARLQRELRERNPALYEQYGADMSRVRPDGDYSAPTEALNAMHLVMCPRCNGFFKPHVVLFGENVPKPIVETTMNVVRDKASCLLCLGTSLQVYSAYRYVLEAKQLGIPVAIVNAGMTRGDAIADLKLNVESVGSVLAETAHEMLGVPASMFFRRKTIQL
row,SMILES,"[32P]NAD+ ADP-ribosyltransferase assay on calf thymus histones, SDS-PAGE/Phospho"
1,"NC(=O)C1CCCc2c1[nH]c1ccc(Cl)cc21 (stereo not drawn) [Ex-527, 6-chloro-2,3,4,9-tetrahydro-1H-carbazole-1-carboxamide]",~ 50 μM
2,O=c1[nH]c(=S)[nH]c(-c2ccccc2)c1Cc1c(O)ccc2ccccc12 [cambinol],~ 2.5 μM
3,NC(=O)c1cccnc1 [nicotinamide],~ 50 μM
